Read-outs that look alike come from different tables or passages of the source.
How the values were obtained:
[1] = tested on: L1210 line (mouse leukemic line); experiment: Inhibition of growth of L1210 line (tritiated thymidine incorporation, 48 hours); assay type: cell-based; conditions: L1210 cells, read-out: IC50 (50% growth inhibition)
Method: The growth of this mouse leukemic line is assessed by the capacity of the cells to incorporate tritiated thymidine. The degree of incorporation is measured 48 hours after the introduction of the test compounds into the culture medium.

[2] = Detection of an excess-vitamin A type toxicity in vivo
Excerpt: (§1) This can be reproduced experimentally in animals.
(§2) The selected treatment protocol is a daily injection for five days, repeated a second time after an interval of two days.

humeri of rat fetuses = experiment: Toxicity on the humeri of rat fetuses explanted in vitro (proteoglycan release); assay type: cell-based; conditions: 7 days of culture in vitro, in words
Method: EXAMPLE 37: STUDY OF THE TOXICITY ON THE HUMERI OF RAT FETUSES OF GESTATIONAL AGE 21 DAYS
The toxicity of retinoids can be evaluated on humeri of rat fetuses of gestational age 21 days.
The toxicity of retinoids can be evaluated on humeri of rat fetuses explanted in vitro as described by KISTLER.
Retinoid activity results in a release of proteoglycans from the bony substance. This release is assessed after 7 days of culture in vitro by assaying the concentration of proteoglycans in the medium, by the method of WITHEMAN (1973).

[3] = in vivo
Excerpt: as §1, §2

[4] = daily injection for five days, repeated after two days interval

Compound | IC50 [1] [µM] | other results
CCOC(=O)/C=C(C)/C=C/C=C(C)/C=C/c1c(C)cc(OC)c(C)c1C [Etretinate, etretinate] | 80 | alopecia [2, 4]: appearance of alopecia; fracture / bone weakening (radiography) [2, 4]: bone weakening; weight [2, 4]: rapid weight loss; excess-vitamin A type toxicity ([2]; overall, in words): rapid weight loss, alopecia and bone weakening
CC(=Cc1ccccc1)C1=Cc2ccccc2OC1 [Example 1, 3-(1-PHENYLPROPEN-2-YL)-2H-CHROMENE] | < 1 | 
CC(=Cc1ccccc1)C1=Cc2cc(Cl)cc(C)c2OC1 [Example 3] | 20 | 
COC(=O)c1ccc(/C=C(\C)C2=Cc3ccccc3OC2)cc1 [Example 6, methyl 4-[2-(2H-chromen-3-yl)propenyl]benzoate] | 25 | 
COC(=O)c1ccc(/C=C(\C)C2=Cc3cc(Cl)cc(Cl)c3OC2)cc1 [Example 8] | 25 | toxicity on the humeri (humeri of rat fetuses): complete absence of toxicity
CCOC(=O)c1ccc(/C=C(\C)C2=Cc3ccccc3OC2)cc1 [Example 10, ethyl 4-[2-(2H-chromen-3-yl)propenyl]benzoate] | 18 | 
CCNC(=O)c1ccc(/C=C(\C)C2=Cc3ccccc3OC2)cc1 [Example 13, N-ethyl-4-[2-(2H-chromen-3-yl)propenyl]benzamide] | 3.8 | 
CCS(=O)(=O)c1ccc(/C=C(\C)C2=Cc3ccccc3OC2)cc1 [Example 16, ethyl 4-[2-(2H-chromen-3-yl)propenyl]phenyl sulfone] | 3.8 | 
CCS(=O)(=O)c1ccc(C=C(C)C2=Cc3cc(Cl)cc(C)c3OC2)cc1 [Example 17] | 7.5 | 
CCS(=O)(=O)c1ccc(C=C(C)C2=Cc3cc(C)cc(C)c3OC2)cc1 [Example 18] | 6 | 
CCS(=O)(=O)c1ccc(/C=C(\C)C2=Cc3cc(OC)ccc3OC2)cc1 [Example 24, ethyl 4-[2-(6-methoxy-2H-chromen-3-yl)propenyl]phenyl sulfone] | 8 | 
CC1=C(/C=C/C(C)=C/C=C/C(C)=C/C(=O)O)C(C)(C)CCC1 [retinoic acid] |  | alopecia [3]: appearance of alopecia; weight [3]: rapid weight loss

Reference: patent US4975455A, “New heteroarotinoid compounds” (Adir et Cie, priority 1988, dated 1990)
